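Test compounds were applied to cells in 96-well plates for 48 hours at 5 doses. GI50 is the concentration that inhibits growth by half.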 Active and inactive are the calls of the source. Rule as the data show it: active = GI50 up to about 1.1 µM and inactive = higher.
How the values were obtained:
Test in all cases: growth of human tumour cells (NCI), 48 h
[1] = tested on: M19-MEL
[2] = tested on: RXF 631
[3] = tested on: SNB-78
[4] = tested on: HOP-18
[5] = tested on: Hs-578T
[6] = tested on: MDA-MB-231
[7] = tested on: T47D
[8] = tested on: BT-549
[9] = tested on: DMS-273

Measured: GI50

CC1=NC(C(=O)O)Cc2c1[nH]c1ccccc21 (centres undefined)
inactive: [1] > 100 µM | [2] > 100 µM | [3] > 100 µM | [4] > 100 µM

O=C1NC2(CCCCC2)C2CCCCCC12 (centres undefined)
inactive: [2] > 100 µM | [3] > 100 µM

COc1ccc([C@H]2C=[N+]([O-])O[C@H](OC3CCCC3)[C@@H]2OC(C)=O)cc1OC
inactive: [5] 29.9 µM | [6] 32.7 µM | [7] 16.1 µM

CCOC(=O)c1csc(NC(=O)CCCC#N)n1
inactive: [5] > 100 µM | [6] > 100 µM | [7] > 100 µM

CO/C(=N/N1CC1C(F)(F)F)c1ccncc1 (centres undefined)
inactive: [5] > 100 µM | [8] 43.3 µM | [6] > 100 µM | [7] > 100 µM

N#CC(=N)c1ncn(-c2ccccc2N)c1N
inactive: [5] > 100 µM | [8] > 100 µM | [6] > 100 µM | [7] > 100 µM

Cn1c2c(c3ccccc31)CCN(CCCCN1CCCCC1)C2=O
inactive: [1] 60.1 µM | [2] > 100 µM | [9] > 100 µM | [3] 43.1 µM | [4] > 100 µM

CC1(C)C2CCC3(OCCO3)C1C(O)C2 (centres undefined)
inactive: [1] > 100 µM | [2] > 100 µM | [9] > 100 µM | [3] > 100 µM | [4] > 100 µM

Cc1ccc([N+](=O)[O-])cc1/N=N/C(=O)NNc1cc([N+](=O)[O-])ccc1C
inactive: [5] 26.4 µM | [8] 22.5 µM | [6] 15.5 µM | [7] 31.3 µM

O=C(NNC(=S)NCc1ccccc1)C12CC3CC(CC(C3)C1)C2
inactive: [5] > 100 µM | [8] > 100 µM | [6] > 100 µM | [7] 49.2 µM

COc1cc2c(cc1OC)C(Cl)C(c1cc(OC)c(OC)c(OC)c1)=C2Cl (centres undefined)
inactive: [1] 14.8 µM | [2] 18.8 µM | [9] 16.5 µM | [3] 12.2 µM | [4] 14.7 µM

CN(C)CCSc1nccc(-c2ccc(-c3ccnc(SCCN(C)C)n3)s2)n1
inactive: [1] 9.42 µM | [9] 8.3 µM | [3] 13 µM | [4] 27.2 µM

C1CCC2(CC1)O[C@@H]1[C@@H](O2)[C@@H](O[C@H]2O[C@@H]3COC4(CCCCC4)O[C@H]3[C@@H]3OC4(CCCCC4)O[C@@H]23)O[C@@H]2COC3(CCCCC3)O[C@@H]12
inactive: [5] > 100 µM | [8] > 100 µM | [6] > 100 µM | [7] > 100 µM

CCOC(=O)CC(NC(=O)c1ccc(/N=N/N(C)C)cc1)C(=O)OCC (centres undefined)
inactive: [1] > 100 µM | [9] > 100 µM

Cc1cc2c(C(C)C)c(O)c(O)c(/C=N/c3ccccc3)c2c(O)c1-c1c(C)cc2c(C(C)C)c(O)c(O)c(/C=N/c3ccccc3)c2c1O
inactive: [1] > 100 µM | [9] > 100 µM

CSC1NC(c2ccccc2)=C(C#N)C(=O)N1C1OCC(OC(C)=O)C(OC(C)=O)C1OC(C)=O (centres undefined)
inactive: [5] > 100 µM | [8] > 100 µM | [6] > 100 µM

COc1ccc2c(C)cc(N/N=C/c3sccc3C)nc2c1
inactive: [5] 12.5 µM | [8] 13.1 µM | [6] 1.43 µM | [7] 7.76 µM

COC(=O)c1cccc(C(=O)OC)c1
inactive: [9] > 100 µM | [3] > 100 µM | [4] > 100 µM

CCOC(=O)NC(=O)c1cn(CCSCCOC(=O)NCCCCCCNC(=O)OCCSCCn2cc(C(=O)NC(=O)OCC)c(=O)[nH]c2=O)c(=O)[nH]c1=O
inactive: [1] > 100 µM | [9] > 100 µM | [3] > 100 µM | [4] > 100 µM

CCOC(=O)c1nc2cc(C(F)(F)F)ccc2nc1Oc1ccc(F)cc1
inactive: [5] > 100 µM | [8] > 100 µM | [6] > 100 µM | [7] 5.9 µM

CCOC1=C2N=C(Cc3ccc(F)cc3)NC2C(=O)c2ccccc21 (centres undefined)
inactive: [1] 9.44 µM | [2] 15.1 µM | [9] 9.71 µM | [3] 69 µM

COc1nc(N)nc2nc[nH]c12
inactive: [1] > 500 µM | [5] 416 µM | [2] 647 µM | [8] 232 µM | [6] 444 µM | [9] 430 µM | [3] 287 µM | [4] 360 µM | [7] 418 µM

NC1(C(=O)O)CCc2ccc(N(CCCl)CCCl)cc2C1 (centres undefined)
inactive: [1] 85.5 µM | [9] 38.8 µM | [4] > 100 µM
